Experimental findings from patent publication US4481192A, “Acid-protease inhibiting peptide derivatives” (SANOFI, priority 1982, dated 1984) are described below.

Like-named read-outs stand apart in the source and are kept apart here. Non-standard residues stand in square brackets, D forms with d. Residues, ends and D or L forms follow the SMILES beside them. *: point of attachment. X1 = COC(=O)C[C@@H](O)[C@H](CC(C)C)N*; Benzylsulfonyl = O=S(=O)(Cc1ccccc1)*; Sta = CC(C)C[C@H](N)[C@@H](O)CC(=O)O; Hydrocinnamoyl = O=C(CCc1ccccc1)*; X2 = O=C(NCCS(=O)(=O)*)OCc1ccccc1; Isovaleryl = CC(C)CC(=O)*; Nle = CCCC[C@H](N)C(=O)O; Nva = CCC[C@H](N)C(=O)O; Cbz = O=C(OCc1ccccc1)*; Boc = CC(C)(C)OC(=O)*

Assay [1] has as its target porcine pepsin (Sus scrofa, UniProt P00791). Description: Inhibition of porcine pepsin. The format is biochemical. The following applies: pH 2, substrate bovine haemoglobin, 37° C. The procedure: The method used is that of TAKAAKI AOYAGI (J. Antibiotics, 24, pages 687-694, 1971). The substrate used is bovine haemoglobin and the enzyme is porcine pepsin.
0.5% strength haemoglobin is hydrolysed with pepsin (1 mcg/ml) at 37° C. in 0.02M KCl-HCl buffer at pH 2.
Preincubation takes place for 3 minutes, followed by incubation for 25 minutes. After precipitation of the proteins with 1.7M perchloric acid, the optical density of the supernatant is determined on a spectrophotometer at 280 nm.
The results are expressed as the percentage inhibition of the maximum optical density obtained in the absence of inhibitor. They are also expressed as an IC50.
(§1) A 10^-3 M stock solution of the peptide is made up in a mixture containing equal volumes of a solution A (19 ml of methanol+1 ml of acetic acid) and a solution B (4 ml of methanol+2 ml of sodium hydroxide solution).
(§2) The subsequent dilutions of the peptide are then prepared in the appropriate buffer in accordance with the procedures described above.

Assay [2] concerns the target T1, human plasma renin activity (Homo sapiens, UniProt P00797).
T1 construct: the human plasma contain and the substrate: angiotensinogen, and the enzyme: renin; from tissue; host or cells: pool of human plasma
T1 sequence (P00797 67-406): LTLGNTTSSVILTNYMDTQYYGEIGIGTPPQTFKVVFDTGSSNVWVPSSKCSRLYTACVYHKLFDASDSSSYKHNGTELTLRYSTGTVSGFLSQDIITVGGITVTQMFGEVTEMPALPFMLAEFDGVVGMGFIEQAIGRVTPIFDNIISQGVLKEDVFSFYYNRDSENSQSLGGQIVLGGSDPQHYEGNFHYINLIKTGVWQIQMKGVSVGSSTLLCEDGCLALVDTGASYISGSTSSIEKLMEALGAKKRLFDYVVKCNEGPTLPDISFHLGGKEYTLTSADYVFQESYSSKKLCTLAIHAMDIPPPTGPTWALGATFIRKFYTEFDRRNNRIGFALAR
In words: Inhibition of the human plasma renin activity (P.R.A.). The format is biochemical. Conditions: 37° C., pool of human plasma. The procedure: The angiotensin I released during the reaction (the human plasma contain and the substrate: angiotensinogen, and the enzyme: renin) is measured by radioimmunological determination using a kit.
Of course, an inhibitor of the enzyme for conversion of the PMSF (phenylmethylsulphonyl fluoride) is added to the incubation medium.
Two types of experiments were carried out:
one at pH 6, which is the optimum pH for the enzyme reaction with human renin (maleate buffer, incubation: 30 minutes), and
the other at pH 7.4, which is the physiological pH (phosphate buffer, incubation: 60 minutes).
as §1, §2

[3] abbreviates: pH 6, maleate buffer, incubation 30 minutes, read-out: INHIBITION OF HUMAN P.R.A. (IC50) pH 6.
The mark [4] stands for this setting: pH 7.4, phosphate buffer, incubation 60 minutes, read-out: INHIBITION OF HUMAN P.R.A. (IC50) pH 7.4.

porcine pepsin, sequence (P00791 60-385): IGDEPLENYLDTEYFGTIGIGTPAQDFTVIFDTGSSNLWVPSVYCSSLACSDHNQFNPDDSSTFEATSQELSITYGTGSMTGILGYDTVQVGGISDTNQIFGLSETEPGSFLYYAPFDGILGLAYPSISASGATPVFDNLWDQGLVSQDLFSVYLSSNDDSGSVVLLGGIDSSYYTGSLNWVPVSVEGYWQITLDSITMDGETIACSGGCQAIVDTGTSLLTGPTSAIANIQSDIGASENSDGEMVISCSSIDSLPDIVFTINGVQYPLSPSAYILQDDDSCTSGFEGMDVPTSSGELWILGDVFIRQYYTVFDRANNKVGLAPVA

Turning to `COC(=O)C[C@@H](O)[C@H](CC(C)C)NC(=O)[C@H](C)NC(=O)C[C@H](O)[C@H](CC(C)C)NC(=O)[C@H](Cc1ccccc1)NC(=O)[C@H](Cc1ccccc1)NC(=O)CC(C)C` [SR 41766, iVa--Phe--Phe--Sta--Ala--isoSta--OMe] (Isovaleryl-FF[Sta]A-X1), the IC50 was determined as 58 nM in assay [1], 14 nM in assay [2] (setting [3]) and 420 nM in assay [2] (setting [4]).

Turning to `COC(=O)C[C@H](O)[C@H](CC(C)C)NC(=O)[C@H](C)NC(=O)C[C@H](O)[C@H](CC(C)C)NC(=O)[C@H](CCCCNC(=O)OCc1ccccc1)NC(=O)[C@H](Cc1ccccc1)NC(=O)CC(C)C` [SR 42130, iVa--Phe--Lys(Z)--Sta--Ala--Sta--OMe] (Isovaleryl-FK(Cbz)[Sta]A[Sta]-OMe), the concentration for half-maximal inhibition (IC50) in assay [1] was determined as 27 nM; in assay [2] (setting [3]), 52 nM; in assay [2] (setting [4]), 2600 nM.

Consider `CC[C@H](C)[C@H](NC(=O)OC(C)(C)C)C(=O)N[C@@H](Cc1c[nH]cn1)C(=O)N[C@@H](CC(C)C)[C@@H](O)CC(=O)N[C@@H](C)C(=O)N[C@@H](CC(C)C)[C@@H](O)CC(=O)OC` [SR 42019, Boc--Ile--His--Sta--Ala--Sta--OMe] (Boc-IH[Sta]A[Sta]-OMe), for which the IC50 in assay [1] is 73 nM; in assay [2] (setting [3]), 110 nM.

On to `COC(=O)C[C@H](O)[C@H](CC(C)C)NC(=O)[C@H](C)NC(=O)C[C@H](O)[C@H](CC(C)C)NC(=O)[C@H](CC(C)C)NC(=O)[C@H](Cc1ccccc1)NC(=O)CC(C)C` [SR 41765, iVa--Phe--Leu--Sta--Ala--Sta--OMe] (Isovaleryl-FL[Sta]A[Sta]-OMe), for which the IC50 in assay [1] amounted to 8 nM; in assay [2] (setting [3]), 0.33 nM; in assay [2] (setting [4]), 75 nM.

Consider `CC(C)C[C@H](NC(=O)[C@H](C)NC(=O)C[C@H](O)[C@H](CC(C)C)NC(=O)[C@@H](NC(=O)[C@@H](Cc1ccccc1)NC(=O)OC(C)(C)C)C(C)C)[C@@H](O)CC(=O)O` [SR 41491, Boc--(D)Phe--Val--Sta--Ala--Sta--OH] (Boc-[dF]V[Sta]A[Sta]-OH), for which the IC50 in assay [1] is 22 nM; in assay [2] (setting [3]) it was 260 nM; in assay [2] (setting [4]) it was 4000 nM.

The compound `CCCC[C@H](NC(=O)[C@H](Cc1ccccc1)NC(=O)CC(C)C)C(=O)N[C@@H](CC(C)C)[C@@H](O)CC(=O)N[C@@H](C)C(=O)N[C@@H](CC(C)C)[C@@H](O)CC(=O)O` [SR 42128, iVa--Phe--Nle--Sta--Ala--Sta--OH] (Isovaleryl-F[Nle][Sta]A[Sta]-OH) gave an IC50 in assay [1] of 19 nM.

Turning to `COC(=O)C[C@H](O)[C@H](CC(C)C)NC(=O)[C@H](C)NC(=O)C[C@H](O)[C@H](CC(C)C)NC(=O)CNC(=O)[C@H](Cc1ccccc1)NC(=O)CC(C)C` [SR 42261, iVa--Phe--Gly--Sta--Ala--Sta--OMe] (Isovaleryl-FG[Sta]A[Sta]-OMe), the values for the IC50 in assay [1], in assay [2] (setting [3]) and in assay [2] (setting [4]) were 750 nM, 170 nM and 4700 nM, respectively.

The compound `COC(=O)C[C@H](O)[C@H](CC(C)C)NC(=O)[C@H](C)NC(=O)C[C@H](O)[C@H](CC(C)C)NC(=O)[C@@H](NC(=O)[C@@H](Cc1ccccc1)NC(=O)OC(C)(C)C)C(C)C` [SR 41377, Boc--(D)Phe--Val--Sta--Ala--Sta--OCH3] (Boc-[dF]V[Sta]A[Sta]-OMe) displayed an IC50 in assay [1] of 47 nM.

Take `COC(=O)C[C@H](O)[C@H](CC(C)C)NC(=O)[C@H](C)NC(=O)C[C@H](O)[C@H](CC(C)C)NC(=O)[C@H](Cc1c[nH]cn1)NC(=O)[C@H](Cc1ccccc1)NS(=O)(=O)CCNC(=O)OCc1ccccc1` [SR 41748, Z--Tau--Phe--His--Sta--Ala--Sta--OCH3] (X2-FH[Sta]A[Sta]-OMe): the values for the IC50 in assay [1], in assay [2] (setting [3]) and in assay [2] (setting [4]) were 620 nM, 2.2 nM and 110 nM, respectively.

In the case of `COC(=O)C[C@H](O)[C@H](CC(C)C)NC(=O)[C@H](C)NC(=O)C[C@H](O)[C@H](CC(C)C)NC(=O)[C@H](C)NC(=O)[C@H](Cc1ccccc1)NC(=O)CC(C)C` [SR 42258, iVa--Phe--Ala--Sta--Ala--Sta--OMe] (Isovaleryl-FA[Sta]A[Sta]-OMe), the results for the IC50 in assay [1], in assay [2] (setting [3]) and in assay [2] (setting [4]) were 18 nM, 9 nM and 470 nM, respectively.

With `CCC[C@H](NC(=O)[C@H](Cc1ccccc1)NC(=O)CC(C)C)C(=O)N[C@@H](CC(C)C)[C@@H](O)CC(=O)N[C@@H](C)C(=O)N[C@@H](CC(C)C)[C@@H](O)CC(=O)OC` [SR 41995, iVa--Phe--Nva--Sta--Ala--Sta--OMe] (Isovaleryl-F[Nva][Sta]A[Sta]-OMe), the IC50 in assay [1] came to 16 nM; in assay [2] (setting [3]), 0.03 nM; in assay [2] (setting [4]), 42 nM.

Consider `COC(=O)C[C@H](O)[C@H](CC(C)C)NC(=O)[C@H](C)NC(=O)C[C@H](O)[C@H](CC(C)C)NC(=O)[C@H](Cc1ccccc1)NC(=O)[C@H](Cc1ccccc1)NS(=O)(=O)Cc1ccccc1` [SR 41939, C6 H5 CH2 SO2 --Phe--Phe--Sta--Ala--Sta--OCH3] (Benzylsulfonyl-FF[Sta]A[Sta]-OMe), for which the IC50 in assay [1] was determined as 36 nM; in assay [2] (setting [3]) it was 17 nM; in assay [2] (setting [4]), 880 nM.

For the compound `CCC[C@H](NC(=O)[C@H](Cc1ccccc1)NC(C)=O)C(=O)N[C@@H](CC(C)C)[C@@H](O)CC(=O)N[C@@H](C)C(=O)N[C@@H](CC(C)C)[C@@H](O)CC(=O)OC` [SR 41994, Ac--Phe--Nva--Sta--Ala--Sta--OMe] (Ac-F[Nva][Sta]A[Sta]-OMe), the IC50 in assay [1] amounted to 13 nM; in assay [2] (setting [3]) it was 0.76 nM; in assay [2] (setting [4]), 260 nM.

For the compound `CCC[C@H](NC(=O)[C@H](Cc1ccccc1)NC(=O)OC(C)(C)C)C(=O)N[C@@H](CC(C)C)[C@@H](O)CC(=O)N[C@@H](C)C(=O)N[C@@H](CC(C)C)[C@@H](O)CC(=O)OC` [SR 41996, Boc--Phe--Nva--Sta--Ala--Sta--OMe] (Boc-F[Nva][Sta]A[Sta]-OMe), the IC50 in assay [2] (setting [3]) turned out to be 0.0011 nM; in assay [2] (setting [4]) it was 51 nM.

For the compound `COC(=O)C[C@H](O)[C@H](CC(C)C)NC(=O)[C@H](C)NC(=O)C[C@H](O)[C@H](CC(C)C)NC(=O)[C@H](Cc1c[nH]c2ccccc12)NC(=O)[C@H](Cc1ccccc1)NC(=O)OCc1ccccc1` [SR 41416, Z Phe--Trp--Sta--Ala--Sta--OMe] (Cbz-FW[Sta]A[Sta]-OMe), the IC50 amounted to 65 nM in assay [1], 80 nM in assay [2] (setting [3]) and 1400 nM in assay [2] (setting [4]).

As for `COC(=O)C[C@H](O)[C@H](CC(C)C)NC(=O)[C@H](C)NC(=O)C[C@H](O)[C@H](CC(C)C)NC(=O)[C@@H](NC(=O)[C@H](Cc1ccc(O)cc1)NC(=O)OCc1ccccc1)C(C)C` [SR 41476, Z--Tyr--Val--Sta--Ala--Sta--OMe] (Cbz-YV[Sta]A[Sta]-OMe), the IC50 was determined as 24 nM in assay [1], 170 nM in assay [2] (setting [3]) and 2200 nM in assay [2] (setting [4]).

As to `COC(=O)C[C@H](O)[C@H](CC(C)C)NC(=O)[C@H](C)NC(=O)C[C@H](O)[C@H](CC(C)C)NC(=O)[C@H](Cc1ccccc1)NC(=O)[C@@H](Cc1ccccc1)NC(=O)OC(C)(C)C` [SR 41518, Boc--(D)Phe--Phe--Sta--Ala--Sta--OMe] (Boc-[dF]F[Sta]A[Sta]-OMe), the IC50 came out at 480 nM in assay [1] and 950 nM in assay [2] (setting [3]).

As for `CC(C)C[C@H](NC(=O)[C@H](C)NC(=O)C[C@H](O)[C@H](CC(C)C)NC(=O)[C@H](Cc1ccccc1)NC(=O)[C@H](Cc1ccccc1)NC(=O)OCc1ccccc1)[C@@H](O)CC(=O)O` [SR 41225, Z--Phe--Phe--Sta--Ala--Sta--OH] (Cbz-FF[Sta]A[Sta]-OH), the IC50 worked out at 90 nM in assay [1], 70 nM in assay [2] (setting [3]) and 1000 nM in assay [2] (setting [4]).

For the compound `COC(=O)C[C@H](O)[C@H](CC(C)C)NC(=O)[C@H](C)NC(=O)C[C@H](O)[C@H](CC(C)C)NC(=O)[C@H](Cc1ccccc1)NC(=O)[C@H](Cc1ccccc1)NC(=O)OCc1ccccc1` [SR 41320, Z--Phe--Phe--Sta--Ala--Sta--OMe] (Cbz-FF[Sta]A[Sta]-OMe), the results for the IC50 in assay [1], in assay [2] (setting [3]) and in assay [2] (setting [4]) were 30 nM, 17 nM and 3500 nM, respectively.

Turning to `COC(=O)C[C@H](O)[C@H](CC(C)C)NC(=O)[C@H](C)NC(=O)C[C@H](O)[C@H](CC(C)C)NC(=O)[C@H](Cc1ccccc1)NC(=O)[C@H](Cc1ccccc1)NC(=O)CCc1ccccc1` [SR 41768, C6 H5 CH2 CH2 CO--Phe--Phe--Sta--Ala--Sta--OMe] (Hydrocinnamoyl-FF[Sta]A[Sta]-OMe), the IC50 in assay [1] turned out to be 42 nM; in assay [2] (setting [3]) it was 50 nM; in assay [2] (setting [4]) it was 1000 nM.

In general, IC50 refers to the concentration needed to halve the response being measured.
